Reference: patent publication US12084458B2, “Substituted pyridines, pyridazines, and pyrimidines as TYK2 inhibitors” (Sudo Biosciences Limited, priority 2021, dated 2024)

Key:
Format in all cases: cell-based
[1] = tested on: HEK-Blue IL-23 cells (IL-23-stimulated STAT3 SEAP reporter; TYK2 JH2); assay: HEK-Blue IL-23 SEAP reporter assay for profiling TYK2 pseudokinase (JH2) inhibition; details: 10 ng/mL human recombinant IL-23, SEAP reporter, read-out: IL23 (TYK2 inhibitory activity, IC50)
Description: (§1) Example B-1: HEK-Blue™ IL-23 and IFNα/β Reporter Assays for Profiling TYK2 Pseudokinase (JH2) Inhibition
(§2) HEK-Blue™ IL-23 and IFNα/β cells with a stably-integrated cytokine receptor and STAT3 or STAT1 express STAT-inducible secreted embryonic alkaline phosphatase (SEAP) reporter gene upon cytokine stimulation. These cells are plated in DMEM (Gibco) containing 10% heat-inactivated FBS (Gibco) and 100 U/mL PenStrep (Gibco) at 37° C. under 5% CO2 conditions for 20-22 hours. The cells are then pretreated with serially diluted test compounds for 60 min prior to stimulation with either 10 ng/mL human recombinant IL-23 (Miltenyl Biotech) or 1 ng/mL human recombinant IFNα (InvivoGen) for 22-24 hours for IL-23 or 16-18 h for IFNα. SEAP induction is measured using the QUANTI Blue™ Solution (InvivoGen) according to the manufacturer's instructions.

[2] = tested on: HEK-Blue IL-2 reporter cells (IL-2-stimulated STAT5 SEAP reporter); assay: HEK-Blue IL-2 SEAP reporter assay for determining selectivity; details: 4 ng/mL human recombinant IL-2
Description: (§3) Example B-3: HEK-Blue™ IL-2 and IFNγ Reporter Assays for Determining Selectivity
(§4) HEK-Blue™ IL-2 and IFNγ reporter cells with a stably-integrated cytokine receptor and STAT5 or STAT1 express STAT-inducible secreted embryonic alkaline phosphatase (SEAP) reporter gene upon cytokine stimulation. These cells were plated in DMEM (Gibco) containing 10% heat-inactivated FBS (Gibco) and 100 U/mL PenStrep (Gibco) at 37° C. under 5% CO2 conditions for 20-22 hours. The cells were then pretreated with serially diluted test compounds for 60 min prior to stimulation with either 4 ng/mL human recombinant IL-2 (Miltenyl Biotech) or 50 ng/mL human recombinant IFNγ (InvivoGen) for 24 hours. SEAP induction was measured using the QUANTI-Blue™ Solution (InvivoGen) according to the manufacturer's instructions.

[3] = tested on: HEK-Blue IFNα/β cells (IFNα-stimulated STAT1 SEAP reporter; TYK2 JH2); assay: HEK-Blue IFNα/β SEAP reporter assay for profiling TYK2 pseudokinase (JH2) inhibition; parameters: IFNα (TYK2 inhibitory activity, IC50): scale not given here; details: 1 ng/mL human recombinant IFNα; for IC50: Homo sapiens, HEK-Blue, read-out: IFNα (TYK2 inhibitory activity, IC50)
Description: as §1, §2

[4] = tested on: HEK-Blue IFNγ reporter cells (IFNγ-stimulated STAT1 SEAP reporter); assay: HEK-Blue IFNγ SEAP reporter assay for determining selectivity; details: Homo sapiens, HEK-Blue, 50 ng/mL human recombinant IFNγ, read-out: IFN-γ (SEAP selectivity, IC50)
Description: as §3, §4

SMILES	IC50 [1] [nM]	IC50 [2] [nM]	IC50 [3] [nM]	IC50 [4] [nM]	IFNα (TYK2 inhibitory activity, IC50) [3]
[2H]C([2H])([2H])NC(=O)c1cnc(NC(=O)C2CC2)cc1Nc1cccc2c1N(C)Cc1nn(C([2H])([2H])[2H])nc1-2 [Compound 49, 6-(cyclopropanecarboxamido)-N-(methyl-d3)-4-((5-methyl-2-(methyl-d3)-4,5-dihydro-2H-[1,2,3]triazolo[4,5-c]quinolin-6-yl)amino)nicotinamide]	< 30	> 1000	< 30	30 to 300	–
[2H]C([2H])([2H])NC(=O)c1cnc(NC(=O)NC)cc1Nc1cccc2c1N(C)C([2H])([2H])c1nn(C)nc1-2 [Compound 63, 4-((2,5-dimethyl-4,5-dihydro-2H-[1,2,3]triazolo[4,5-c]quinolin-6-yl-4,4-d2)amino)-N-(methyl-d3)-6-(3-methylureido)nicotinamide]	< 30	> 1000	< 30	> 1000	–
[2H]C([2H])([2H])NC(=O)c1nnc(NC(=O)C2CC2)cc1Nc1nccc2c1N(C)[C@@H](C)c1nn(C)nc1-2 (single isomer, unassigned) [Compound 94]	< 30	> 1000	< 30	300 to 1000	–
[2H]C([2H])([2H])NC(=O)c1cnc(NC(=O)C2CC2)cc1Nc1cccc2c1N(C)[C@@H](C)c1nc(C)nn1-2 (single isomer, unassigned) [Compound 25]	< 30	> 1000	< 30	> 1000	–
[2H]C([2H])([2H])NC(=O)c1cnc(NC(=O)[C@@H]2CC2(F)F)cc1Nc1cccc2c1N(C)Cc1nn(C)nc1-2 [Compound 70, (S)-6-(2,2-difluorocyclopropane-1-carboxamido)-4-((2,5-dimethyl-4,5-dihydro-2H-[1,2,3]triazolo[4,5-c]quinolin-6-yl)amino)-N-(methyl-d3)nicotinamide]	< 30	> 1000	30 to 300	> 1000	–
[2H]C([2H])([2H])NC(=O)c1nnc(NC(=O)NC)cc1Nc1nccc2c1N(C)[C@H](C)c1nn(C)nc1-2 (single isomer, unassigned) [Compound 99]	30 to 300	–	30 to 300	–	–
[2H]C([2H])([2H])NC(=O)c1cnc(NC(=O)C2CC2)nc1Nc1cccc2c1N(C)Cc1nc(C)nn1-2 [Compound 21, 2-(cyclopropanecarboxamido)-4-((2,5-dimethyl-4,5-dihydro-[1,2,4]triazolo[1,5-a]quinoxalin-6-yl)amino)-N-(methyl-d3)pyrimidine-5-carboxamide]	30 to 300	–	30 to 300	–	–
[2H]C([2H])([2H])NC(=O)c1nnc(NC(=O)N(C)C)cc1Nc1cccc2c1N(C)Cc1nc(C)nn1-2 [Compound 20, 4-((2,5-dimethyl-4,5-dihydro-[1,2,4]triazolo[1,5-a]quinoxalin-6-yl)amino)-6-(3,3-dimethylureido)-N-(methyl-d3)pyridazine-3-carboxamide]	30 to 300	–	> 1000	–	–
[2H]C([2H])([2H])NC(=O)c1nnc(NS(=O)(=O)C2CC2)cc1Nc1cccc2c1N(C)Cc1nc(C)nn1-2 [Compound 38, 6-(cyclopropanesulfonamido)-4-((2,5-dimethyl-4,5-dihydro-[1,2,4]triazolo[1,5-a]quinoxalin-6-yl)amino)-N-(methyl-d3)pyridazine-3-carboxamide]	> 1000	–	> 1000	–	–
[2H]C([2H])([2H])NC(=O)c1cnc(NC(=O)N(C)C)cc1Nc1cccc2c1N(C)Cc1nn(C)nc1-2 [Compound 51, 4-((2,5-dimethyl-4,5-dihydro-2H-[1,2,3]triazolo[4,5-c]quinolin-6-yl)amino)-6-(3,3-dimethylureido)-N-(methyl-d3)nicotinamide]	< 30	> 1000	–	–	–
[2H]C([2H])([2H])NC(=O)c1cnc(N(C)C(=O)C2CC2)cc1Nc1cccc2c1N(C)Cc1nc(C)nn1-2 [Compound 82, 4-((2,5-dimethyl-4,5-dihydro-[1,2,4]triazolo[1,5-a]quinoxalin-6-yl)amino)-N-(methyl-d3)-6-(N-methylcyclopropanecarboxamido)nicotinamide]	> 1000	–	> 1000	–	–
[2H]C([2H])([2H])NC(=O)c1nnc(NC(=O)[C@H]2C[C@H]2F)cc1Nc1nccc2c1N(C)Cc1nn(C)nc1-2 [Compound 115, 4-((2,5-dimethyl-4,5-dihydro-2H-[1,2,3]triazolo[4,5-c][1,7]naphthyridin-6-yl)amino)-6-((1R,2R)-2-fluorocyclopropane-1-carboxamido)-N-(methyl-d3)pyridazine-3-carboxamide]	< 30	–	< 30	–	–
[2H]C([2H])([2H])NC(=O)c1nnc(NC(=O)C2(F)CC2)cc1Nc1cccc2c1N(C)Cc1nc(C)nn1-2 [Compound 37, 4-((2,5-dimethyl-4,5-dihydro-[1,2,4]triazolo[1,5-a]quinoxalin-6-yl)amino)-6-(1-fluorocyclopropane-1-carboxamido)-N-(methyl-d3)pyridazine-3-carboxamide]	30 to 300	–	> 1000	–	–
[2H]C([2H])([2H])NC(=O)c1cnc(Nc2ccc(F)cn2)cc1Nc1cccc2c1N(C)Cc1nc(C)nn1-2 [Compound 27, 4-((2,5-dimethyl-4,5-dihydro-[1,2,4]triazolo[1,5-a]quinoxalin-6-yl)amino)-6-((5-fluoropyridin-2-yl)amino)-N-(methyl-d3)nicotinamide]	< 30	> 1000	–	300 to 1000	–
[2H]C([2H])([2H])NC(=O)c1cnc(NC(=O)C2CC2)c(F)c1Nc1cccc2c1N(C)Cc1nn(C)nc1-2 [Compound 65, 6-(cyclopropanecarboxamido)-4-((2,5-dimethyl-4,5-dihydro-2H-[1,2,3]triazolo[4,5-c]quinolin-6-yl)amino)-5-fluoro-N-(methyl-d3)nicotinamide]	300 to 1000	–	–	–	C/D
[2H]C([2H])([2H])NC(=O)c1nnc(NC(=O)C2CC2)cc1Nc1nccc2c1N(C)[C@@H](C)c1nc(C)nn1-2 [Compound 112, (S)-6-(cyclopropanecarboxamido)-N-(methyl-d3)-4-((2,4,5-trimethyl-4,5-dihydropyrido[3,4-e][1,2,4]triazolo[1,5-a]pyrazin-6-yl)amino)pyridazine-3-carboxamide]	< 30	–	30 to 300	–	–
[2H]C([2H])([2H])NC(=O)Nc1cc(Nc2cccc3c2N(C)Cc2nn(C)nc2-3)c(C(=O)NC([2H])([2H])[2H])cn1 [Compound 67, 4-((2,5-dimethyl-4,5-dihydro-2H-[1,2,3]triazolo[4,5-c]quinolin-6-yl)amino)-N-(methyl-d3)-6-(3-(methyl-d3)ureido)nicotinamide]	< 30	> 1000	< 30	–	–
[2H]C([2H])([2H])NC(=O)c1cnc(NC(=O)C2CC2)cc1Nc1cccc2c1N(C)[C@H](C)c1nn(C)nc1-2 (single isomer, unassigned) [Compound 58]	< 30	–	300 to 1000	–	–
CNC(=O)c1nnc(NC(=O)C2CC2)cc1Nc1cccc2c1OCCCn1cnnc1-2 [Compound 75, 6-(cyclopropanecarboxamido)-4-((6,7-dihydro-5H-benzo[b][1,2,4]triazolo[3,4-d][1,5]oxazocin-9-yl)amino)-N-methylpyridazine-3-carboxamide]	> 1000	–	> 1000	–	–
